Marks after values point to notes of the source that are not given here.
Molecular target: GluN1-1a/GluN2B NMDAR (wildtype) (Rattus norvegicus, UniProt P35439+Q00960)
Format: cell-based
Settings: for IC50 / p (slope of the dose-response curve) / A2 ± SE (maximum inhibition from dose-response curve): TEVC; for IC50: holding potential −70 mV, 10 µM glycine and 10 µM (S)-glutamate, read-out: IC50 ± SE; for p (slope of the dose-response curve) / A2 ± SE (maximum inhibition from dose-response curve): −70 mV; for A2 ± SE (maximum inhibition from dose-response curve): flexible A2; for IC50 shift compared to rac-1: wildtype GluN1-1a/GluN2B, IC50 increase relative to rac-1; for A2 (maximum inhibition), set as identical with rac-1: due to non-saturating inhibition A2 was fixed, not fitted

GluN1-1a/GluN2B NMDAR (wildtype), sequence (Q00960 27-1482, other chains not shown): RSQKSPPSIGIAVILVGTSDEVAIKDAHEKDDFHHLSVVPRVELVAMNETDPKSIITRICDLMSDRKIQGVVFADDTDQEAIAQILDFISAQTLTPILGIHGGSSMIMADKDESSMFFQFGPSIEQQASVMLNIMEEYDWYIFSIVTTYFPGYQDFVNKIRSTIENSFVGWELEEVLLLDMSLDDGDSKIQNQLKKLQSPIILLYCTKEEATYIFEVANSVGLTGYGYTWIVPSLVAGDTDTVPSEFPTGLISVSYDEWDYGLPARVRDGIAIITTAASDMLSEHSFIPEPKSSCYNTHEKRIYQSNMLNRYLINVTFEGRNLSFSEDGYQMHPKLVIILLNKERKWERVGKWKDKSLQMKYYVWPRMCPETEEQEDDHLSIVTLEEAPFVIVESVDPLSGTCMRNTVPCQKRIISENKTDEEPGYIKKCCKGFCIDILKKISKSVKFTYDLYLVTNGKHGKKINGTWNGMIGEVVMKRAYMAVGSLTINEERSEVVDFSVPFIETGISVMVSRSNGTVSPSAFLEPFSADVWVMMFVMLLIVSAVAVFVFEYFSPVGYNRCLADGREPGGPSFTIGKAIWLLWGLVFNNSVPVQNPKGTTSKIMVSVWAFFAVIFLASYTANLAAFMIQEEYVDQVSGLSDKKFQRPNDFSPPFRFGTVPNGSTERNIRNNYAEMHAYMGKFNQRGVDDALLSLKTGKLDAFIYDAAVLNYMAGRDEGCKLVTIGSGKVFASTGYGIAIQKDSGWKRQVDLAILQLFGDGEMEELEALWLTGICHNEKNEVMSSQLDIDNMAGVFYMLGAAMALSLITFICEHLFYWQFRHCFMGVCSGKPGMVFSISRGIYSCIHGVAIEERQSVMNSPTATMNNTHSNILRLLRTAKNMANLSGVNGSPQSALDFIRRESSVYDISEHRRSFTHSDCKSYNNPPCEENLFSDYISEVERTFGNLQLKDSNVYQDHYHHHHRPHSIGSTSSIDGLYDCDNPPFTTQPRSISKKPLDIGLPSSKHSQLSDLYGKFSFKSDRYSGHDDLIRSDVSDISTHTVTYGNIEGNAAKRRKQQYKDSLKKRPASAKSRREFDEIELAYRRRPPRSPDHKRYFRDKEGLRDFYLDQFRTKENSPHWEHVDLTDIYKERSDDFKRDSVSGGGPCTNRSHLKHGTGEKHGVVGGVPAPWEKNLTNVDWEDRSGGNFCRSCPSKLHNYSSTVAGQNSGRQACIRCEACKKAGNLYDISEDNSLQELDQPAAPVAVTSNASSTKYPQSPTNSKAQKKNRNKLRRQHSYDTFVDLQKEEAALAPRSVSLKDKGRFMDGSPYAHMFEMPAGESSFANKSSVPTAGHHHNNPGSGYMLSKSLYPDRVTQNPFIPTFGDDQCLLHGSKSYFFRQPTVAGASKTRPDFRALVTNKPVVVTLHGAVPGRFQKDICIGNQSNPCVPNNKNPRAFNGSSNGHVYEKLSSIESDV

Row | SMILES | Inhibition (% ± SEM) of ion flux (compound concentration 30 µM, wildtype) | inhibition at 30 µM (compound concentration 30 µM, wildtype, read-out: Inhibition (% ± SEM) of ion flux) [%] | IC50 (wildtype) [nM] | p (slope of the dose-response curve) (wildtype) | A2 ± SE (maximum inhibition from dose-response curve) (wildtype) [%] | IC50 shift compared to rac-1 [fold] | A2 (maximum inhibition), set as identical with rac-1
1 | c1ccc(CCCCN2CCc3ccccc3CC2)cc1 [compound 5] | almost inactive | 9 ± 2 | – | – | – | – | –
2 | Oc1ccc2c(c1)CCN(CCCCc1ccccc1)CC2 [compound 3] | – | – | 3370 ± 926 | 0.93 | 92 ± 8 | 36 | –
3 | COc1ccc2c(c1)CCN(CCCCc1ccccc1)CC2O (stereo not shown) [compound 4] | – | – | 1300 ± 483 | 0.70 | 100 ± 9 | 14 | –
4 | Oc1ccc2c(c1)CCN([C@H]1CC[C@H](c3ccccc3)CC1)CC2O (stereo partly shown) [compound 6] | – | – | 2630 ± 296 | 0.70 | – | – | 93^d %
5 | Oc1ccc2c(c1)CCN([C@H]1CC[C@@H](c3ccccc3)CC1)CC2O (stereo partly shown) [compound 7] | – | – | 7210 ± 1770 | 0.62 | – | – | 93^d %
